Measurements reported in patent publication US8802597B2, “Herbicidal pyrimidines” (E I du Pont de Nemours and Company, priority 2003, dated 2014).

How the values were obtained:
Assay type in all cases: in vivo
[1] = test system: winter barley (Hordeum vulgare); assay: Test C postemergence; conditions: for Plant response rating, Barley: scale 0 to 100
Procedure, shortened: (§1)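 Visual injury ratings, 0 (no effect) to 100 (complete control), made 12 to 14 days after treatment by comparison with untreated controls. Greenhouse plants received test chemical in a surfactant-containing non-phytotoxic solvent, either preemergence on planted seeds or postemergence at the 1- to 4-leaf stage.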

[2] = test system: blackgrass (Alopecurus myosuroides); assay: Test C postemergence; conditions: for Plant response rating, Blackgrass: scale 0 to 100
Procedure, shortened: as §1

wild oat (Avena fatua) = assay: Test C postemergence; conditions: for Plant response rating, Oat, Wild: scale 0 to 100
Procedure, shortened: as §1

[3] = test system: downy brome (Bromus tectorum); assay: Test C postemergence; conditions: for Plant response rating, Bromegrass, Downy: scale 0 to 100
Procedure, shortened: as §1

[4] = test system: windgrass (Apera spica-venti); assay: Test C postemergence; conditions: for Plant response rating, Windgrass: scale 0 to 100
Procedure, shortened: as §1

[5] = test system: canarygrass (Phalaris minor); assay: Test C postemergence; conditions: for Plant response rating, Canarygrass: scale 0 to 100
Procedure, shortened: as §1

[6] = test system: wheat (Triticum aestivum); assay: Test C postemergence; conditions: for Plant response rating, Wheat: scale 0 to 100
Procedure, shortened: as §1

[7] = test system: green foxtail (Setaria viridis); assay: Test C postemergence; conditions: for Plant response rating, Foxtail, Green: scale 0 to 100
Procedure, shortened: as §1

[8] = test system: Italian ryegrass (Lolium multiflorum); assay: Test C postemergence; conditions: for Plant response rating, Ryegrass, Italian: scale 0 to 100
Procedure, shortened: as §1

[9] = test system: late watergrass (Echinochloa oryzicola); assay: Test E flooded paddy water application; conditions: Flood, 21 days, scale 0 to 100 (0 no effect, 100 complete control)
Procedure, shortened: (§2)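 Greenhouse pots of Tama silt loam with weeds and rice at 2.0–2.5-leaf stage, flooded to 3 cm; compounds applied directly into paddy water, depth maintained. Visual rating versus untreated controls after 21 days, 0 (no effect) to 100 (complete control); 29.5/26.7 °C, 16-h photoperiod.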

[10] = test system: smallflower umbrella sedge (Cyperus difformis); assay: Test E flooded paddy water application; conditions: Flood, 21 days, scale 0 to 100 (0 no effect, 100 complete control)
Procedure, shortened: as §2

[11] = 62 g ai/ha, scale 0 to 100 (0 no effect, 100 complete control)
[12] = 125 g ai/ha, scale 0 to 100 (0 no effect, 100 complete control)

Structure (SMILES): CCOC(=O)C(Cl)(Cl)c1nc(C2CC2)nc(N)c1Br [Compound 34]
- Plant response rating (scale of 0 to 100), Barley ([1]; 31 g ai/ha): 20
- Barley plant response rating [1, 11]: 20
- Barley plant response rating [1, 12]: 30
- Plant response rating, Barley ([1]; 250 g ai/ha): 40
- Plant response rating (scale of 0 to 100), Blackgrass ([2]; 31 g ai/ha): 0
- Blackgrass plant response rating [2, 11]: 35
- Blackgrass plant response rating [2, 12]: 35
- Plant response rating, Blackgrass ([2]; 250 g ai/ha): 45
- Plant response rating (scale of 0 to 100), Oat, Wild (wild oat (Avena fatua); 31 g ai/ha): 20
- Oat, Wild plant response rating (wild oat (Avena fatua); [11]): 40
- Oat, Wild plant response rating (wild oat (Avena fatua); [12]): 45
- Plant response rating, Oat, Wild (wild oat (Avena fatua); 250 g ai/ha): 50
- Plant response rating (scale of 0 to 100), Bromegrass, Downy ([3]; 31 g ai/ha): 0
- Bromegrass, Downy plant response rating [3, 11]: 0
- Bromegrass, Downy plant response rating [3, 12]: 30
- Plant response rating, Bromegrass, Downy ([3]; 250 g ai/ha): 35
- Plant response rating (scale of 0 to 100), Windgrass ([4]; 31 g ai/ha): 40
- Windgrass plant response rating [4, 11]: 40
- Windgrass plant response rating [4, 12]: 50
- Plant response rating, Windgrass ([4]; 250 g ai/ha): 60
- Plant response rating (scale of 0 to 100), Canarygrass ([5]; 31 g ai/ha): 20
- Canarygrass plant response rating [5, 11]: 30
- Canarygrass plant response rating [5, 12]: 35
- Plant response rating, Canarygrass ([5]; 250 g ai/ha): 45
- Plant response rating (scale of 0 to 100), Wheat ([6]; 31 g ai/ha): 0
- Wheat plant response rating [6, 11]: 20
- Wheat plant response rating [6, 12]: 30
- Plant response rating, Wheat ([6]; 250 g ai/ha): 35
- Plant response rating (scale of 0 to 100), Foxtail, Green ([7]; 31 g ai/ha): 40
- Foxtail, Green plant response rating [7, 11]: 40
- Foxtail, Green plant response rating [7, 12]: 45
- Plant response rating, Foxtail, Green ([7]; 250 g ai/ha): 45
- Plant response rating (scale of 0 to 100), Ryegrass, Italian ([8]; 31 g ai/ha): 40
- Ryegrass, Italian plant response rating [8, 11]: 40
- Ryegrass, Italian plant response rating [8, 12]: 45
- Plant response rating, Ryegrass, Italian ([8]; 250 g ai/ha): 60

Structure (SMILES): COC(=O)c1nc(C2CC2)nc(NO)c1Br [Compound 35]
- Plant response rating, Barley ([1]; 250 g ai/ha): 40
- Plant response rating, Barley ([1]; 500 g ai/ha): 45
- plant injury at 62 g/ha ([1]; Hordeum vulgare, post-emergence, 62 g ai/ha, scale 0 to 100 (0 no effect, 100 complete control), read-out: Barley plant response rating): 20%
- plant injury at 125 g/ha ([1]; Hordeum vulgare, post-emergence, 125 g ai/ha, scale 0 to 100 (0 no effect, 100 complete control), read-out: Barley plant response rating): 35%
- Plant response rating, Blackgrass ([2]; 250 g ai/ha): 60
- Plant response rating, Blackgrass ([2]; 500 g ai/ha): 65
- pest or weed control at 62 g/ha ([2]; Alopecurus myosuroides, post-emergence, 62 g ai/ha, scale 0 to 100 (0 no effect, 100 complete control), read-out: Blackgrass plant response rating): 50%
- pest or weed control at 125 g/ha ([2]; Alopecurus myosuroides, post-emergence, 125 g ai/ha, scale 0 to 100 (0 no effect, 100 complete control), read-out: Blackgrass plant response rating): 50%
- Plant response rating, Oat, Wild (wild oat (Avena fatua); 250 g ai/ha): 45
- Plant response rating, Oat, Wild (wild oat (Avena fatua); 500 g ai/ha): 55
- pest or weed control at 62 g/ha (wild oat (Avena fatua); Avena fatua, post-emergence, 62 g ai/ha, scale 0 to 100 (0 no effect, 100 complete control), read-out: Oat, Wild plant response rating): 30%
- pest or weed control at 125 g/ha (wild oat (Avena fatua); Avena fatua, post-emergence, 125 g ai/ha, scale 0 to 100 (0 no effect, 100 complete control), read-out: Oat, Wild plant response rating): 45%
- Plant response rating, Bromegrass, Downy ([3]; 250 g ai/ha): 40
- Plant response rating, Bromegrass, Downy ([3]; 500 g ai/ha): 40
- pest or weed control at 62 g/ha ([3]; Bromus tectorum, post-emergence, 62 g ai/ha, scale 0 to 100 (0 no effect, 100 complete control), read-out: Bromegrass, Downy plant response rating): 30%
- pest or weed control at 125 g/ha ([3]; Bromus tectorum, post-emergence, 125 g ai/ha, scale 0 to 100 (0 no effect, 100 complete control), read-out: Bromegrass, Downy plant response rating): 30%
- Plant response rating, Windgrass ([4]; 250 g ai/ha): 65
- Plant response rating, Windgrass ([4]; 500 g ai/ha): 65
- pest or weed control at 62 g/ha ([4]; Apera spica-venti, post-emergence, 62 g ai/ha, scale 0 to 100 (0 no effect, 100 complete control), read-out: Windgrass plant response rating): 40%
- pest or weed control at 125 g/ha ([4]; Apera spica-venti, post-emergence, 125 g ai/ha, scale 0 to 100 (0 no effect, 100 complete control), read-out: Windgrass plant response rating): 55%
- Plant response rating, Canarygrass ([5]; 250 g ai/ha): 45
- Plant response rating, Canarygrass ([5]; 500 g ai/ha): 55
- pest or weed control at 62 g/ha ([5]; Phalaris minor, post-emergence, 62 g ai/ha, scale 0 to 100 (0 no effect, 100 complete control), read-out: Canarygrass plant response rating): 35%
- pest or weed control at 125 g/ha ([5]; Phalaris minor, post-emergence, 125 g ai/ha, scale 0 to 100 (0 no effect, 100 complete control), read-out: Canarygrass plant response rating): 45%
- Plant response rating, Wheat ([6]; 250 g ai/ha): 45
- Plant response rating, Wheat ([6]; 500 g ai/ha): 45
- plant injury at 62 g/ha ([6]; Triticum aestivum, post-emergence, 62 g ai/ha, scale 0 to 100 (0 no effect, 100 complete control), read-out: Wheat plant response rating): 35%
- plant injury at 125 g/ha ([6]; Triticum aestivum, post-emergence, 125 g ai/ha, scale 0 to 100 (0 no effect, 100 complete control), read-out: Wheat plant response rating): 40%
- Plant response rating, Foxtail, Green ([7]; 250 g ai/ha): 60
- Plant response rating, Foxtail, Green ([7]; 500 g ai/ha): 65
- pest or weed control at 62 g/ha ([7]; Setaria viridis, post-emergence, 62 g ai/ha, scale 0 to 100 (0 no effect, 100 complete control), read-out: Foxtail, Green plant response rating): 40%
- pest or weed control at 125 g/ha ([7]; Setaria viridis, post-emergence, 125 g ai/ha, scale 0 to 100 (0 no effect, 100 complete control), read-out: Foxtail, Green plant response rating): 50%
- Plant response rating, Ryegrass, Italian ([8]; 250 g ai/ha): 40
- Plant response rating, Ryegrass, Italian ([8]; 500 g ai/ha): 40
- pest or weed control at 62 g/ha ([8]; Lolium multiflorum, post-emergence, 62 g ai/ha, scale 0 to 100 (0 no effect, 100 complete control), read-out: Ryegrass, Italian plant response rating): 40%
- pest or weed control at 125 g/ha ([8]; Lolium multiflorum, post-emergence, 125 g ai/ha, scale 0 to 100 (0 no effect, 100 complete control), read-out: Ryegrass, Italian plant response rating): 40%

Structure (SMILES): COC(=O)c1nc(-c2ccc(C(F)(F)F)cc2)nc(N)c1Cl [Compound 44]
- Watergrass, Late plant response rating ([9]; 32 g ai/ha): 0
- Watergrass, Late plant response rating ([9]; 64 g ai/ha): 0
- Watergrass, Late plant response rating ([9]; 125 g ai/ha): 0
- Watergrass, Late plant response rating ([9]; 250 g ai/ha): 0
- Watergrass, Late plant response rating ([9]; 500 g ai/ha): 20
- Sedge, Umbrella plant response rating ([10]; 32 g ai/ha): 20
- Sedge, Umbrella plant response rating ([10]; 64 g ai/ha): 90
- Sedge, Umbrella plant response rating ([10]; 125 g ai/ha): 90
- Sedge, Umbrella plant response rating ([10]; 250 g ai/ha): 100
- Sedge, Umbrella plant response rating ([10]; 500 g ai/ha): 100

Structure (SMILES): CCOC(=O)c1nc(-c2ccc3c(c2)OCO3)nc(N)c1Cl [Compound 74]
- Watergrass, Late plant response rating ([9]; 32 g ai/ha): 0
- Watergrass, Late plant response rating ([9]; 64 g ai/ha): 0
- Watergrass, Late plant response rating ([9]; 125 g ai/ha): 0
- Watergrass, Late plant response rating ([9]; 250 g ai/ha): 0
- Plant response rating, Watergrass, Late ([9]; 16 g ai/ha): 0
- Sedge, Umbrella plant response rating ([10]; 32 g ai/ha): 0
- Sedge, Umbrella plant response rating ([10]; 64 g ai/ha): 80
- Sedge, Umbrella plant response rating ([10]; 125 g ai/ha): 95
- Sedge, Umbrella plant response rating ([10]; 250 g ai/ha): 100
- Plant response rating, Sedge, Umbrella ([10]; 16 g ai/ha): 0
